These are literature values, as cited in patent publication US20260272857A1, “AN ORALLY RAPIDLY DISINTEGRATING TABLET OF PROPRANOLOL AND ITS PROCESS OF PREPARATION” (NOVUMGEN LIMITED, priority 2023, published 2026).

Counter-ions that a name gives are not always drawn.

For series [1] the following is noted: high permeability and high solubility drug.
The conditions of series [2]: in vivo.

On to `CC(C)NCC(O)COc1cccc2ccccc12` (stereo not drawn) [Propranolol hydrochloride], for which the “BCS class in the Biopharmaceutical classification system” value in series [1] is listed as “BCS class I”. As for `CC(C)NCC(O)COc1cccc2ccccc12` (stereo not drawn) [propranolol, 1-naphthalen-1-yloxy-3-(propan-2-ylamino) propan-2-ol], in series [2], the Elimination half-life is 8 h and the Plasma half-life is 3 to 6 h.
